Source: publication PMC10935503 (Acta Pharmaceutica Sinica. B, 2023)
Where two headings read alike, the source gives them in different places.

Legend:
MT-4 cells = assay: Cytotoxicity in mock-infected MT-4 cells, MTT method; format: cell-based; settings: MTT method
HIV-1 WT strain (IIIB) = assay: Anti-HIV-1 activity in MT-4 cells, MTT method, WT strain IIIB; format: cell-based
[1] = tested on: HIV-1 K103N + Y181C (RES056); assay: microbe, parasite or virus in culture; format: cell-based; settings: for RF RES056: resistance fold, EC50 (mutant strain)/EC50 (WT strain); for SI RES056: selectivity index, ratio of CC50/EC50
HIV-1 K103N = assay: microbe, parasite or virus in culture; format: cell-based; settings: for RF K103N: resistance fold, EC50 (mutant strain)/EC50 (WT strain); for SI K103N: selectivity index, ratio of CC50/EC50
HIV-1 L100I = assay: microbe, parasite or virus in culture; format: cell-based; settings: for EC50: Human immunodeficiency virus 1, MT4, read-out: EC50 L100I; for RF L100I: resistance fold, EC50 (mutant strain)/EC50 (WT strain); for SI L100I: selectivity index, ratio of CC50/EC50
HIV-1 F227L + V106A = assay: microbe, parasite or virus in culture; format: cell-based; settings: for RF F227L + V106A: resistance fold, EC50 (mutant strain)/EC50 (WT strain); for SI F227L + V106A: selectivity index, ratio of CC50/EC50
HIV-1 Y188L = assay: microbe, parasite or virus in culture; format: cell-based; settings: for RF Y188L: resistance fold, EC50 (mutant strain)/EC50 (WT strain); for SI Y188L: selectivity index, ratio of CC50/EC50
HIV-1 Y181C = assay: microbe, parasite or virus in culture; format: cell-based; settings: for RF Y181C: resistance fold, EC50 (mutant strain)/EC50 (WT strain); for SI Y181C: selectivity index, ratio of CC50/EC50
HIV-1 E138K = assay: microbe, parasite or virus in culture; format: cell-based; settings: for RF E138K: resistance fold, EC50 (mutant strain)/EC50 (WT strain); for SI E138K: selectivity index, ratio of CC50/EC50
[2] = Cytotoxicity in mock-infected MT-4 cells, MTT method; format: cell-based; settings: human
HIV-1 RT = HIV-1 RT (Human immunodeficiency virus type 1 group M subtype B, UniProt P03366); assay: HIV-1 RT inhibition assay; format: biochemical
[3] = cited from earlier work
[4] = In vivo pharmacokinetics in SD rats; parameters: species or system Sprague–Dawley (SD) rats
[5] = tested on: CYP1A2, CYP2C9, CYP2C19, CYP2D6 (range over isoforms); assay: Cytochrome P450 inhibition assay, summary over isoforms; format: in vitro ADME; settings: human, human liver microsomes
[6] = read-out: EC50 IIIB, MT-4 cells, MTT method, HIV-1 IIIB (WT)
[7] = Human immunodeficiency virus 1, MT4, read-out: EC50 RES056
[8] = Human immunodeficiency virus 1, MT4, read-out: EC50 K103N
[9] = Human immunodeficiency virus 1, MT4, read-out: EC50 F227L + V106A
[10] = Human immunodeficiency virus 1, MT4, read-out: EC50 Y188L
[11] = Human immunodeficiency virus 1, MT4, read-out: EC50 Y181C
[12] = Human immunodeficiency virus 1, MT4, read-out: EC50 E138K
[13] = Human immunodeficiency virus 1, IIIB, MT4, read-out: EC50 IIIB
[14] = Sprague-Dawley, rat, plasma, iv, 2 mg/kg
[15] = Sprague-Dawley, rat, plasma, po, 20 mg/kg

| Compound | CC50 (MT-4 cells) [nM] | EC50 (HIV-1 WT strain (IIIB); [6]) [nM] | EC50 [1, 7] [nM] | RF RES056 [1] | SI RES056 [1] | EC50 (HIV-1 K103N; [8]) [nM] | RF K103N (HIV-1 K103N) | SI K103N (HIV-1 K103N) | EC50 (HIV-1 L100I) [nM] | RF L100I (HIV-1 L100I) | EC50 (HIV-1 F227L + V106A; [9]) [nM] | RF F227L + V106A (HIV-1 F227L + V106A) | EC50 (HIV-1 Y188L; [10]) [nM] | RF Y188L (HIV-1 Y188L) | EC50 (HIV-1 Y181C; [11]) [nM] | RF Y181C (HIV-1 Y181C) | RF E138K (HIV-1 E138K) | CC50 at 5 days [2] [nM] | EC50 (HIV-1 WT strain (IIIB); [13]) [nM] | IC50 (HIV-1 RT) [nM] | other results |
| --- | --- | --- | --- | --- | --- | --- | --- | --- | --- | --- | --- | --- | --- | --- | --- | --- | --- | --- | --- | --- | --- |
| 4-((1-(4-(4-Cyano-2,6-dimethylphenoxy)-7,8-dihydro-6H-thiopyrano[3,2-d]pyrimidin-2-yl)piperidin-4-yl)amino)benzenesulfonamide [19b] | 3070 ± 300 | > 16100 | – | – | – | – | – | – | – | – | – | – | – | – | – | – | – | – | – | – | EC50 IIIB (HIV-1 WT strain (IIIB); MT-4 cells, MTT method, HIV-1 IIIB (WT)): lost potency |
| Cc1cc(/C=C/C#N)cc(C)c1Oc1nc(Nc2ccc(C#N)cc2)nc2c1SCCC2 [15b, (E)-4-((4-(4-(2-Cyanovinyl)-2,6-dimethylphenoxy)-7,8-dihydro-6H-thiopyrano[3,2-d]pyrimidin-2-yl)amino)benzonitrile] | – | – | 23.5 ± 14.7 | 7.4 | 208 | 6.42 ± 0.4 | 2.0 | 762 | 7.26 ± 0.51 | 2.3 | 27.9 ± 9.17 | 8.8 | 23.3 ± 0.48 | 7.3 | 11.1 ± 3.39 | 3.5 | 6.8 | 4890 ± 620 | 3.18 ± 1.21 | 101 ± 12 | Times greater activity than ETR, L100I (HIV-1 L100I; ratio of EC50 values vs ETR): 1.3 times; SI L100I (HIV-1 L100I): 674; SI F227L + V106A (HIV-1 F227L + V106A): 175; SI Y188L (HIV-1 Y188L): 210; SI Y181C (HIV-1 Y181C): 441; EC50 (HIV-1 E138K; [12]): 21.7 ± 7.55 nM; SI E138K (HIV-1 E138K): 225 |
| Cc1cc(C#N)cc(C)c1Oc1nc(Nc2ccc(C#N)cc2)nc(N)c1Br [ETR, etravirine, reference compound] | – | – | 35.2 ± 19.7 | 12.5 | – | 3.38 ± 0.69 | 1.2 | – | 9.13 ± 6.1 | 3.2 | 16.3 ± 6.24 | 5.8 | 15.4 ± 6.07 | 5.5 | 14.1 ± 5.72 | 5.0 | – | 2200 ± 15 | 2.81 ± 0.47 | – | solubility (physchem; pH 7, aqueous buffer): < 1 µg/mL; solubility (physchem; pH 7.4, aqueous buffer): < 1 µg/mL; Water solubility (Sol.) [3]: < 1 µg/mL; V (iv) ([4]; SD rats, iv 2 mg/kg, mean ± SD, n = 3): 8.85 ± 1.17 L/kg; AUC(0-inf) [4, 14]: 587 ± 48 ng·h/mL; AUC(0-t) [4, 14]: 576 ± 45 ng·h/mL; MRT inf [4, 14]: 1.1 ± 0.34 h; MRT last [4, 14]: 0.93 ± 0.23 h; clearance [4, 14]: 57 mL/min/kg; half-life [4, 14]: 1.8 ± 0.24 h; bioavailability ([4]; Sprague-Dawley, rat, plasma, oral, 20 mg/kg): 7.17%; AUC(0-inf) [4, 15]: 421 ± 153 ng·h/mL; AUC(0-t) [4, 15]: 395 ± 139 ng·h/mL; Cmax [4, 15]: 110 ± 34.1 ng/mL; MRT inf [4, 15]: 3.03 ± 0.14 h; MRT last [4, 15]: 2.55 ± 0.04 h; Tmax [4, 15]: 1 h; half-life [4, 15]: 1.82 ± 0.07 h; IC50 at 10 min [5]: 277 to 12000 nM |
| Cc1ccnc2c1NC(=O)c1cccnc1N2C1CC1 [NVP, reference compound] | > 15000 | 118 ± 66.9 | – | 18.8 | – | – | 30.0 | – | – | – | – | 30.0 | – | 37.4 | – | 32.0 | 1.3 | – | – | – | EC50 ([1]; read-out: EC50 RES056, MT-4 cells, MTT method, RES056 (K103N + Y181C)): 2220 ± 736 nM; EC50 (HIV-1 K103N; read-out: EC50 K103N, MT-4 cells, MTT method): 3550 ± 2410 nM; EC50 (HIV-1 F227L + V106A; read-out: EC50 F227L + V106A, MT-4 cells, MTT method): 3540 ± 2750 nM; EC50 (HIV-1 Y188L; read-out: EC50 Y188L, MT-4 cells, MTT method): 4420 ± 2470 nM; EC50 (HIV-1 Y181C; read-out: EC50 Y181C, MT-4 cells, MTT method): 3780 ± 2580 nM; EC50 (HIV-1 E138K; read-out: EC50 E138K, MT-4 cells, MTT method): 158 ± 112 nM |
| Cc1cc(/C=C/C#N)cc(C)c1Nc1ccnc(Nc2ccc(C#N)cc2)n1 [RPV, rilpivirine, reference compound] | – | – | – | – | – | – | 1.3 | – | – | 1.5 | – | 82 | – | 80 | – | – | 5.8 | – | 1 ± 0.27 | 118 ± 27 | Water solubility (Sol.) [3]: < 1 µg/mL; IC50 at 10 min [5]: 335 to 9110 nM |
| Cc1cc(C#N)cc(C)c1Oc1nc(Nc2ccc(C#N)cc2)nc2c1S(=O)(=O)CCC2 [compound 16b, 4-((2-((4-Cyanophenyl)amino)-5,5-dioxido-7,8-dihydro-6H-thiopyrano[3,2-d]pyrimidin-4-yl)oxy)-3,5-dimethylbenzonitrile] | – | – | 49.1 ± 14 | 34.1 | 381 | 2.3 ± 0.15 | 1.6 | 8130 | 21.8 ± 5.65 | 15.1 | 37.9 ± 21.3 | 26.3 | 12.3 ± 2.27 | 8.5 | 10.4 ± 1.44 | 7.2 | 7.6 | 18700 ± 8010 | 1.44 ± 0.17 | 27 ± 11 | SI L100I (HIV-1 L100I): 858; SI F227L + V106A (HIV-1 F227L + V106A): 493; SI Y188L (HIV-1 Y188L): 1520; SI Y181C (HIV-1 Y181C): 1798; EC50 (HIV-1 E138K; [12]): 10.9 ± 0.32 nM; SI E138K (HIV-1 E138K): 1716 |
